Measurements as given in patent US20210128500A1, “Methods of Treating Conditions Associated with Leaky Gut Barrier” (The Regents of the University of California, priority 2017, published 2021).
Entries after “also recorded” stand apart in the source; their conditions may differ.

How the values were obtained:
AMPK α1β1γ1 = AMPK α1β1γ1 (Homo sapiens, UniProt Q13131+Q9Y478); assay: AMPK activation by A769662, α1β1γ1 isoform (fold activation, FIG. 18); format: biochemical; settings: estimated
[1] = system: AMPK 32-subunit-containing isoforms; assay: AMPK activation by A769662, 32-subunit-containing isoforms (FIG. 18); format: biochemical
DSS-induced colitis = DSS-induced colitis (FIGS. 20A-20E); format: in vivo; settings: activation of AMPK with A769662
[2] = system: enteroid-derived monolayers (EDMs); assay: TEER across enteroid-derived monolayers challenged with E. coli K12 (FIG. 4B); format: cell-based, mouse and human; settings: Metformin pre-treatment 1 μM, 18 h; E. coli K12 challenge 8 h
Description: (§1) In FIG. 4B, TEER was measured across EDMs that were pre-treated or not with Metformin (1 μM, 18 h) prior to challenge with E. coli K12 strain for 8 h. Drop in TEER (Y axis) is plotted. A representative experiment is shown. […] Activation of the AMPK→GIV stress polarity axis was monitored using pS245GIV (red). […] Arrowheads=separation of TJs and loss of pS245GIV.
(§2) Detailed Methods: Isolation of enteroids and generation of enteroid-derived monolayers (EDM): Crypts are isolated from human colonic biopsies by digesting tissue with Collagenase type I (2 mg/ml; Invitrogen), filtered with a cell strainer and washed with medium (DMEM/F12 with HEPES, 10% FBS), as outlined before. The epithelial units are suspended in […] (BD basement membrane matrix). Cell-[…] suspension (15 μl) are placed at the center of the 24-well plate on ice and placed on the incubator upside-down for polymerization (as shown in FIG. 4A). After 10 min, 500 μl of 50% conditioned media (prepared from L-WRN cells with Wnt3a, R-spondin and Noggin) containing 10 μM Y27632 (ROCK inhibitor) and 10 μM SB431542 (an inhibitor for TGF-β type I receptor) is added to the suspension. The medium is changed every 2 days and the enteroids are expanded and frozen in liquid nitrogen. To prepare EDMs, single cells from enteroids in 5% conditioned media are added to diluted […] (1:30) as done before. […]

[3] = system: enteroid-derived monolayers (EDMs); assay: Tight junction integrity by occludin / pS245GIV staining in EDMs challenged with E. coli (FIG. 4C); format: cell-based, mouse and human; settings: Metformin pre-treatment 1 μM, 18 h; E. coli K12 8 h
Description: as §1, §2

[4] = system: Mouse intestine-derived EDMs; assay: Tight junction integrity by occludin / pS245GIV staining in EDMs exposed to LPS or H2O2 (FIG. 5); format: cell-based; settings: 1 μM Metformin
Description: Mouse intestine-derived EDMs were exposed to indicated amounts of LPS (top) or H2O2 (bottom) after treating them or not with 1 μM Metformin. Fixed monolayers were assessed for TJs by staining for occludin (a TJ marker; green grey scales). Activation of the AMPK→GIV stress polarity axis was monitored using pS245GIV (red grey scales). […] TEER measurements agree with IF findings (not shown).

AMPK→pS245GIV axis = assay: Activity of the AMPK→pS245GIV axis in human EDMs from non-diseased aged colons; format: cell-based
CLDN2 = CLDN2 biomarker in response to IBD-associated microbes (FIG. 15); format: cell-based
high-fat fed mice = settings: cited from earlier work

AMPK α1β1γ1, sequence (Q13131 whole entry, canonical isoform): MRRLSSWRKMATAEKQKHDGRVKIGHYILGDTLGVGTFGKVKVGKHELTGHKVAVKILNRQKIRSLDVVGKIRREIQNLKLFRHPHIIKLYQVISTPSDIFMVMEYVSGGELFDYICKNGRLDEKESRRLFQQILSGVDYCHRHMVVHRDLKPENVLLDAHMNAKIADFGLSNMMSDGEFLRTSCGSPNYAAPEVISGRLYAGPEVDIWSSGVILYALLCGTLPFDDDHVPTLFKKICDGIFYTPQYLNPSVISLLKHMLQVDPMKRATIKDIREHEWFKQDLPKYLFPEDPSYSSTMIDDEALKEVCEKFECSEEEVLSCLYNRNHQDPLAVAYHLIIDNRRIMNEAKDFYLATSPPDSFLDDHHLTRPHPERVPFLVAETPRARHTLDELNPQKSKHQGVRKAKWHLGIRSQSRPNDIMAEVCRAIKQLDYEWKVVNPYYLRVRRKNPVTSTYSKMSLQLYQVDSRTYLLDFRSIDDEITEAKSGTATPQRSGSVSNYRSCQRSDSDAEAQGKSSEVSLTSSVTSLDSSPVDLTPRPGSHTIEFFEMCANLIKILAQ
AMPK α1β1γ1, sequence (Q9Y478 whole entry, canonical isoform): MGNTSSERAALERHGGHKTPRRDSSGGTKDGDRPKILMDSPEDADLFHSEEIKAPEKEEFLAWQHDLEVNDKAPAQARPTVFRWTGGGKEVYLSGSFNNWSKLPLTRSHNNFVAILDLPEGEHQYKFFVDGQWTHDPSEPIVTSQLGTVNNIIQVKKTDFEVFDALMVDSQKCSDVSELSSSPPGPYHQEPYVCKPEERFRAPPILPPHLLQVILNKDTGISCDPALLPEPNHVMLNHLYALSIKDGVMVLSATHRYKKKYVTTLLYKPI
AMPK α1β1γ1, sequence (P54619 whole entry partner, canonical isoform): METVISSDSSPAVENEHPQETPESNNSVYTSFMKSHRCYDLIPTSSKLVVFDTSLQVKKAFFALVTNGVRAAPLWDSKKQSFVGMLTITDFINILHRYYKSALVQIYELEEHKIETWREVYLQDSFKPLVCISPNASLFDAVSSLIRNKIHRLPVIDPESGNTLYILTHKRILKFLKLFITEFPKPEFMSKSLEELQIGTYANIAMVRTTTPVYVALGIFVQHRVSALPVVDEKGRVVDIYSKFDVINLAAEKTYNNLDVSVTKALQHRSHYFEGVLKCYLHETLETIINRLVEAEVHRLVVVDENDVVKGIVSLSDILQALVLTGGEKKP

SMILES	AC50 (AMPK α1β1γ1) [µM]	AC50 [1] [µM]	colon length (DSS-induced colitis)	healing of colonic mucosa (DSS-induced colitis)	Drop in TEER [2]	TJ preservation (occludin pattern) [3]	TJ preservation (occludin pattern) ([4]; H2O2 stress)	TJ preservation (occludin pattern) ([4]; LPS stress)	activity of the AMPK→pS245GIV axis (AMPK→pS245GIV axis)	increase in the CLDN2 biomarker (CLDN2)	endotoxemia (high-fat fed mice)	gut barrier integrity (high-fat fed mice)	insulin signaling (high-fat fed mice)
N#Cc1c(O)c2c(-c3ccc(-c4ccccc4O)cc3)csc2[nH]c1=O [A769662]	0.0722	> 40	preserves colon length	heals colonic mucosa									
CN(C)C(=N)N=C(N)N [Metformin]					significantly reduced the drop in TEER	TJs were better preserved; also recorded: protects TJs against stress-induced collapse	TJs were better preserved; also recorded: protects TJs against stress-induced collapse	TJs were better preserved; also recorded: protects TJs against stress-induced collapse	can be increased	prevents the increase	attenuates endotoxemia	enhances gut barrier integrity	enhances insulin signaling
